1 compound from PMC5461819 (Peptides, 2015) can be followed below.

For assay [1], the target named is T1, rat NMBR (Rattus norvegicus, UniProt P24053).
T1 sequence (P24053 1-390): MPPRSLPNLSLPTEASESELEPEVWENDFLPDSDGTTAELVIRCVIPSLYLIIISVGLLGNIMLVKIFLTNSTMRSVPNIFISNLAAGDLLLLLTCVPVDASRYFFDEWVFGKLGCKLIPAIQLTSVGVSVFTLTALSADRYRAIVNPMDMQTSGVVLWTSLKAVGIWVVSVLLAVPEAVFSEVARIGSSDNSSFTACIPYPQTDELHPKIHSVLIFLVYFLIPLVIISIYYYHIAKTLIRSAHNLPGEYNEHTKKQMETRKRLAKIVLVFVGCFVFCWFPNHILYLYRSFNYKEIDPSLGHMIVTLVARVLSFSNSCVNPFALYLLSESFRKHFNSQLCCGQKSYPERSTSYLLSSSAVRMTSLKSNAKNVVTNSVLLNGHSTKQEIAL
Kind of assay: Binding studies, rNMBR/BALB cells.

The target in assay [2] is T2, human BRS-3 (Homo sapiens, UniProt P32247).
T2 sequence (P32247 1-399): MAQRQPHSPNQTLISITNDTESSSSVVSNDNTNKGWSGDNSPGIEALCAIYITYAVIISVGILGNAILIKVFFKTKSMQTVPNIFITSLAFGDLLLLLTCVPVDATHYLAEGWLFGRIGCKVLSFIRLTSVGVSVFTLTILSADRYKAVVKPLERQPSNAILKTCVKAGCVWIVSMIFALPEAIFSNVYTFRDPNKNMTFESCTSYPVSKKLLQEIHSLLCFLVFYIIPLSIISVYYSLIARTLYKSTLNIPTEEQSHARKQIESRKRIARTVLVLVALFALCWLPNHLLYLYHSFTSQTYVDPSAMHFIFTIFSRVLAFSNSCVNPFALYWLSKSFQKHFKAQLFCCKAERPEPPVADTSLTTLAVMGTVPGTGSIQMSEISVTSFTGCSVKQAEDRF
Nature of the assay: [3H]Inositol phosphate generation. In kind it is cell-based.

The next assay concerns the target T3, mouse BRS-3 (Mus musculus, UniProt O54798).
T3 sequence (O54798 1-399): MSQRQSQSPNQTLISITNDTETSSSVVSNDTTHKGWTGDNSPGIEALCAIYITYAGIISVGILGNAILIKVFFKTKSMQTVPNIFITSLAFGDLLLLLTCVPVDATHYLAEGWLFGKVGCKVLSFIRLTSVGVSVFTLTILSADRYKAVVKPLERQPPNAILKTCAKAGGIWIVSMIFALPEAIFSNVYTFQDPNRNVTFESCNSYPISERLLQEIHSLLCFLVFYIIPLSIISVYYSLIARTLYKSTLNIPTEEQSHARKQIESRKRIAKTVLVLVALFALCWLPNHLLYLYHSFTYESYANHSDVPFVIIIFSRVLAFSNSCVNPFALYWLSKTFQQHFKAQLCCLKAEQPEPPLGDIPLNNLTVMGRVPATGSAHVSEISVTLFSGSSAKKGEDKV
Nature of the assay: [3H]Inositol phosphate generation, mBRS-3/BALB cells. In kind it is cell-based.

Assay [3] addresses T4, mouse NMBR (Mus musculus, UniProt O54799).
T4 sequence (O54799 1-390): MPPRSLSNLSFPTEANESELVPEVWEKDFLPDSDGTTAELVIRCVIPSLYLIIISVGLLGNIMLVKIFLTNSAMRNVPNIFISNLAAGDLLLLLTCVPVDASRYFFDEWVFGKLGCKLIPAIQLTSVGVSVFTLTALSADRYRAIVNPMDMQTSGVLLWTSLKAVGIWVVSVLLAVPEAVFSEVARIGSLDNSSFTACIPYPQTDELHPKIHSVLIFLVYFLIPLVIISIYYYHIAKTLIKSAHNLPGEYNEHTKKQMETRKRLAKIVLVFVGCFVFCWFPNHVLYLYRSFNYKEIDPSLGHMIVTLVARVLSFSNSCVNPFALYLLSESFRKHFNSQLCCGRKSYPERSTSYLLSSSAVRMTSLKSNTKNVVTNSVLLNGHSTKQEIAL
Kind of assay: Binding studies, mNMBR/BALB cells.

The target in assay [4] is T5, rat GRPR (Rattus norvegicus, UniProt P52500). Nature of the assay: [3H]Inositol phosphate generation, rGRPR/AR42J cells. The conditions noted are these: EC50 Rat GRPR rGRPR/AR42J, [3H]IP production, 60 min, 37°C. In kind it is cell-based.
For assay [5], the target named is T6, human NMBR (Homo sapiens, UniProt P28336). Kind of assay: Binding studies, hNMBR/BALB cells.
In assay [6] the target is T1, rat NMBR. Nature of the assay: [3H]Inositol phosphate generation, rNMBR/BALB cells. The assay is classed as cell-based. Conditions: EC50 Rat NMBR rNMBR/BALB, [3H]IP production, 60 min, 37°C.
Assay [7] has as its target T7, human GRPR (Homo sapiens, UniProt P30550). Kind of assay: [3H]Inositol phosphate generation, hGRPR/BALB cells. The assay is classed as cell-based.
For assay [8], the target named is T8, mouse GRPR (Mus musculus, UniProt P21729). Nature of the assay: Binding studies, mGRPR/BALB cells.
In assay [9] the target is T7, human GRPR. Kind of assay: Binding studies, hGRPR/BALB cells.
Assay [10] has as its target T5, rat GRPR. Kind of assay: Binding studies, rGRPR/AR42J cells.
In assay [11] the target is T4, mouse NMBR. Nature of the assay: [3H]Inositol phosphate generation, mNMBR/BALB cells. In kind it is cell-based. The conditions noted are these: EC50 Mouse NMBR mNMBR/BALB, [3H]IP production, 60 min, 37°C.
Assay [12] deals with T2, human BRS-3. Kind of assay: Binding studies, inhibition of 125I-[D-Tyr6,β-Ala11,Phe13,Nle14]Bn-.
The target of assay [13] is T6, human NMBR. Nature of the assay: [3H]Inositol phosphate generation, hNMBR/BALB cells. In kind it is cell-based. Conditions: EC50 Human NMBR hNMBR/BALB, [3H]IP production, 60 min, 37°C.
Assay [14] deals with T8, mouse GRPR. Kind of assay: [3H]Inositol phosphate generation, mGRPR/BALB cells. The assay is classed as cell-based.
For the next assay, the target named is T9, rat BRS-3 (Rattus norvegicus, UniProt Q8K418).
T9 sequence (Q8K418 1-399): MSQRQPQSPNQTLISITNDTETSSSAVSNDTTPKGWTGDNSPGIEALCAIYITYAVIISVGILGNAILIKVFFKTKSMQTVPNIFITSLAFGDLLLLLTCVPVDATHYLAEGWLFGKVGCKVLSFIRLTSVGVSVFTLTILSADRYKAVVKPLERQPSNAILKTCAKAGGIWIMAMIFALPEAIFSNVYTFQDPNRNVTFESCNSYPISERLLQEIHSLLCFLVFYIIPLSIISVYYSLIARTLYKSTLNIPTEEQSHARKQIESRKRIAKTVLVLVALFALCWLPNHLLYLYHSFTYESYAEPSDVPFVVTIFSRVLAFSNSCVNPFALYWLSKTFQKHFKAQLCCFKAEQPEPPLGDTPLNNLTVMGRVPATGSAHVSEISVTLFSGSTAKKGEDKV
Nature of the assay: [3H]Inositol phosphate generation, rBRS-3/BALB cells. In kind it is cell-based.

What is called IC50 is the concentration at which inhibition is half-maximal. The low end stands for greater potency, the high end for weaker potency. For orientation: EC50 means the concentration at which the effect is half-maximal.

The structures appear in SMILES notation. “And” between values parts separate entries of the source, which are not always exact repeats. Equal entries are not always repeated. Some results are limits rather than exact numbers.

T6 sequence (P28336 whole entry): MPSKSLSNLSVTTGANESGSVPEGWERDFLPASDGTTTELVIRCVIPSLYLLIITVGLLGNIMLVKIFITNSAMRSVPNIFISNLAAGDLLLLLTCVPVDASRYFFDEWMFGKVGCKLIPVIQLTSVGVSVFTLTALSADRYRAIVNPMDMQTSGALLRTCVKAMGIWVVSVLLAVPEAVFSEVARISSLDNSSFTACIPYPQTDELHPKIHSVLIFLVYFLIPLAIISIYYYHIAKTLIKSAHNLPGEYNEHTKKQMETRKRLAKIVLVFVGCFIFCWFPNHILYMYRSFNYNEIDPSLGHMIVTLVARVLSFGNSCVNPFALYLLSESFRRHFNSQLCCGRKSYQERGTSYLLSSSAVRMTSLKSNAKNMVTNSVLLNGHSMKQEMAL
T5 sequence (P52500 whole entry): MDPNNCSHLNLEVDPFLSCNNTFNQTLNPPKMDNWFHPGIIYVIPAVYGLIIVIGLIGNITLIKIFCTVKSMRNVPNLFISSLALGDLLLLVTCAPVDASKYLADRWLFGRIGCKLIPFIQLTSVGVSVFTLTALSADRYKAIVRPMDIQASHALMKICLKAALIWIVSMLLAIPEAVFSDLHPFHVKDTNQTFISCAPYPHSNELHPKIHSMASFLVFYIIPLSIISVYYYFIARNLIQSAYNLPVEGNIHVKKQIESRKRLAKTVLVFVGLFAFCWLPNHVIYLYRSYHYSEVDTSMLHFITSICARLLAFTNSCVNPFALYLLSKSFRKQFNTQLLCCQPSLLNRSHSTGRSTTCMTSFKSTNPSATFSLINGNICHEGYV
T7 sequence (P30550 whole entry): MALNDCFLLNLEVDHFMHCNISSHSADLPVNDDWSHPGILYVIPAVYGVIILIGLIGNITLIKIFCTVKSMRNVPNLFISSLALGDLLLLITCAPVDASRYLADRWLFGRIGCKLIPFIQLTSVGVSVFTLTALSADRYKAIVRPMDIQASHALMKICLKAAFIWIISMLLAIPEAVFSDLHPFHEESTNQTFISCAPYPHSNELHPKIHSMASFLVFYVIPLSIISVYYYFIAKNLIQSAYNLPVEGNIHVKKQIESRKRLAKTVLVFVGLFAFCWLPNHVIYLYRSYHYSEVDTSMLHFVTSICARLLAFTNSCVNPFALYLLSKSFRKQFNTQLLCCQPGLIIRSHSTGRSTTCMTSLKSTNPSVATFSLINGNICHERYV
T8 sequence (P21729 whole entry): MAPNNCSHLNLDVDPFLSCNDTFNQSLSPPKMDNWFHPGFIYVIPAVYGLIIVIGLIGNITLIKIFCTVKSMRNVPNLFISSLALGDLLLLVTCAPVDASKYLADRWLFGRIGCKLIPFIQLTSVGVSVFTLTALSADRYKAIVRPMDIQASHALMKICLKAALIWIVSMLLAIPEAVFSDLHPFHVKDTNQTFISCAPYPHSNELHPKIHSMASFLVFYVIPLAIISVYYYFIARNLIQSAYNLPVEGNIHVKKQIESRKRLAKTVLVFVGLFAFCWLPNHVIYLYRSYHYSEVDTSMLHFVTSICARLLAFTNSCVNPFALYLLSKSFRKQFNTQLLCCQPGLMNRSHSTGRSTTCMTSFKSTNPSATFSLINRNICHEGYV

As to `CSCC[C@H](NC(=O)[C@H](Cc1ccccc1)NC(=O)[C@H](Cc1c[nH]cn1)NC(=O)CNC(=O)[C@@H](NC(=O)[C@H](C)NC(=O)[C@H](Cc1c[nH]c2ccccc12)NC(=O)[C@H](CC(C)C)NC(=O)[C@H](CC(N)=O)NC(=O)CN)[C@@H](C)O)C(N)=O` [NMB, neuromedin B], the IC50 at rat NMBR [1] was 0.00121 ± 0.00015 µM; at mouse NMBR [3], 0.0006 ± 2e-05 µM; on human NMBR [5] it was 0.0006 ± 2e-05 µM; at mouse GRPR [8], 0.17 ± 0.005 µM; at human GRPR [9], 0.0315 ± 0.0024 µM; on rat GRPR [10], 0.08 ± 0.005 µM. At human BRS-3 [12], the IC50 was greater than 3 µM. In addition, the EC50 at human BRS-3 [2] was greater than 3 µM; on mouse BRS-3 it was greater than 3 µM; on rat GRPR [4] it was 0.017 µM; on rat NMBR [6], 0.0016 µM and 0.00159 µM; at human GRPR [7] it was 0.53 ± 0.023 µM; on mouse NMBR [11], 0.0047 µM and 0.00473 µM. In addition, the EC50 on human NMBR [13] was 0.0025 µM and 0.00252 µM; at mouse GRPR [14] it was 0.023 ± 0.008 µM; at rat BRS-3 it was greater than 3 µM. For the same compound, at rat GRPR [10] (rat receptors), the “lower affinity for rGRPR than for rNMBR” value is listed as 66 fold.
